Test results published in patent US20250230138A1, “COMPOUNDS HAVING A T-STRUCTURE FORMED BY AT LEAST FOUR CYCLES FOR USE IN THE TREATMENT OF CANCER AND OTHER INDICATIONS” (TheRas, Inc., priority 2022, published 2025).
Where two headings read alike, the source gives them in different places.

Tests used:
[1] = molecular target: Cys242 in human PIK3CA (157-299) (Homo sapiens (Human), UniProt P42336); assay: Covalent modification assay using MALDI-TOF MS; assay type: biochemical; details: 4 h reaction time point; 3.33 μM protein target, 1:7.5 protein to compound ratio (compounds 1-852)
Cys242 in human PIK3CA (157-299), sequence (P42336 157-299): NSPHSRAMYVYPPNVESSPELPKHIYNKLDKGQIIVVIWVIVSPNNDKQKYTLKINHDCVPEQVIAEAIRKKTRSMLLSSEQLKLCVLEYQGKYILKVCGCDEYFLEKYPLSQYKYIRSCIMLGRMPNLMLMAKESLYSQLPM
Procedure, shortened: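 PIK3CA (157-299), 3.33 or 1 μM in 20 mM HEPES, 150 mM NaCl, 2 mM MgCl2, pH 7.3, was incubated with compound at room temperature in the dark for 15 min, 30 min, 2 h or 4 h. Linear MALDI-TOF read-out; % modification = adduct peak height over summed heights of all protein species.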

pAKT in BT474 cells = assay: Cell-based pAKT HTRF assay in BT474 cells; details: BT474 cells, 4 hr incubation, Compounds 10-999, read-out: pAKT inhibition IC50 in BT474 cells
Procedure, shortened: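 BT474 cells in DMEM/10% FBS were treated the day after seeding with a 9-point, 3-fold compound series from 3 μM (0.25% DMSO) for 4 hr. Lysates were mixed with d2 and Eu cryptate anti-pAKT antibodies and incubated 4-24 h at room temperature. HTRF was read with excitation at 320 nm and emission at 615 nm.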

Compound	% of modification [1]	IC50 (pAKT in BT474 cells) [nM]	IC50 (pAKT in BT474 cells; Homo sapiens, BT-474) [nM]
C=CC(=O)N1CCc2nc(-c3nc(-c4ccc5c(c4)CCN(C)C5)c4ccsc4c3-c3c(F)cc(F)cc3OC(F)F)sc2C1 [Compound 475]	B (50%<percent of modification <75%)	> 3000	
C=CC(=O)N1Cc2cc(-c3nc(-c4ccc5c(c4)CCN(C)C5)c4ccsc4c3-c3c(F)cc(F)cc3OC(C)C)cnc2C[C@H]1C [Compound 476, 1-((7R)-3-(7-(2,4-difluoro-6-isopropoxyphenyl)-4-(2-methyl-1,2,3,4-tetrahydroisoquinolin-6-yl)thieno[3,2-c]pyridin-6-yl)-7-methyl-7,8-dihydro-1,6-naphthyridin-6(5H)-yl)prop-2-en-1-one]	A (percent of modification of PIK3CA protein ≥75%)		100 to 1000
C=CC(=O)N1Cc2cc(-c3nc(-c4ccc5c(c4)CCN(C)C5)c4ccsc4c3-c3c(F)cc(F)cc3OC(C)C)nn2C[C@H]1C [Compound 478, 1-((R)-2-((R)-7-(2,4-difluoro-6-isopropoxyphenyl)-4-(2-methyl-1,2,3,4-tetrahydroisoquinolin-6-yl)thieno[3,2-c]pyridin-6-yl)-6-methyl-6,7-dihydropyrazolo[1,5-a]pyrazin-5(4H)-yl)prop-2-en-1-one]	D (percent of modification <25%)	100 to 1000	
C=CC(=O)N1Cc2cc(-c3nc(-c4ccc5c(c4)CCN(C)C5)c4ccsc4c3-c3c(F)cc(F)cc3OC(C)C)nn2C[C@H]1C [Compound 479, 1-((R)-2-((S)-7-(2,4-difluoro-6-isopropoxyphenyl)-4-(2-methyl-1,2,3,4-tetrahydroisoquinolin-6-yl)thieno[3,2-c]pyridin-6-yl)-6-methyl-6,7-dihydropyrazolo[1,5-a]pyrazin-5(4H)-yl)prop-2-en-1-one]	A (percent of modification of PIK3CA protein ≥75%)	< 100	
C=CC(=O)N1[C@H](C)Cn2nc(-c3nc(-c4ccc5c(c4)CCN(C)C5)c4ccsc4c3-c3c(F)cc(F)cc3OCCOC)cc2[C@@H]1C [Compound 480, 1-((4S,6R)-2-(7-(2,4-difluoro-6-(2-methoxyethoxy)phenyl)-4-(2-methyl-1,2,3,4-tetrahydroisoquinolin-6-yl)thieno[3,2-c]pyridin-6-yl)-4,6-dimethyl-6,7-dihydropyrazolo[1,5-a]pyrazin-5(4H)-yl)prop-2-en-1-one]	A (percent of modification of PIK3CA protein ≥75%)		< 100
C=CC(=O)N1CCc2ccc(-c3nc(-c4cnc5c(c4)CNC(=O)C5)c4ccsc4c3-c3c(F)cc(F)cc3OCCOC)cc2C1 [Compound 482]	A (percent of modification of PIK3CA protein ≥75%)	< 100	
C=CC(=O)N1Cc2cc(-c3nc(-c4ccc5c(c4)CCN(C)C5)c4ccsc4c3-c3c(F)cc(F)cc3OCCO)nn2[C@@H](C)C1 [Compound 483]	A (percent of modification of PIK3CA protein ≥75%)	< 100	
C=CC(=O)N1Cc2cc(-c3nc(-c4ccc5c(c4)CCN(C)C5)c4ccsc4c3-c3c(F)cc(F)cc3OC)nn2C(C)C1 (centres unmarked) [Compound 484]	A (percent of modification of PIK3CA protein ≥75%)	< 100	
C=CC(=O)N1Cc2cc(-c3nc(-c4ccc5c(c4)CCN(C)C5)c4ccsc4c3-c3c(F)cc(F)cc3OCC)nn2C(C)C1 (centres unmarked) [Compound 485]	A (percent of modification of PIK3CA protein ≥75%)	< 100	
C=CC(=O)N1Cc2cc(-c3nc(-c4ccc5ncn(C)c5c4)c4ccsc4c3-c3c(F)cc(F)cc3OC(C)C)nn2CC1C (centres unmarked) [Compound 488]	A (percent of modification of PIK3CA protein ≥75%)	< 100	
C=CC(=O)N1Cc2cc(-c3nc(-c4cnn(CC(C)(C)O)c4)c4ccsc4c3-c3c(F)cc(F)cc3OC(C)C)nn2CC1C (centres unmarked) [Compound 490]	A (percent of modification of PIK3CA protein ≥75%)	< 100	
C=CC(=O)N1Cc2cc(-c3nc(-c4cnn(CC(C)(C)O)c4)c4ccsc4c3-c3c(F)cc(F)cc3OCCOC)nn2[C@@H](C)C1 [Compound 491]	A (percent of modification of PIK3CA protein ≥75%)	< 100	
C=CC(=O)N1Cc2cc(-c3nc(-c4cnn(CC(C)(C)O)c4)c4ccsc4c3-c3c(F)cc(F)cc3OC(C)C)nn2[C@@H](C)C1 [Compound 493]	A (percent of modification of PIK3CA protein ≥75%)	< 100	
C=CC(=O)N1Cc2cc(-c3nc(-c4ccc5c(c4)CN(C)C5=O)c4ccsc4c3-c3c(F)cc(F)cc3OCCO)nn2CC1C (centres unmarked) [Compound 494]	A (percent of modification of PIK3CA protein ≥75%)	< 100	
C=CC(=O)N1Cc2cc(-c3nc(-c4cnc5c(c4)CNC(=O)C5)c4ccsc4c3-c3c(F)cc(F)cc3OC(C)C)nn2CC1C (centres unmarked) [Compound 495]	A (percent of modification of PIK3CA protein ≥75%)	< 100	
C=CC(=O)N1Cc2cc(-c3nc(-c4cn(C)cn4)c4ccsc4c3-c3c(F)cc(F)cc3OC(C)C)nn2CC1C (centres unmarked) [Compound 496]	A (percent of modification of PIK3CA protein ≥75%)	< 100	
C=CC(=O)N1Cc2cc(-c3nc(-c4ccc5nc(C)oc5c4)c4ccsc4c3-c3c(F)cc(F)cc3OCCOC)nn2CC1C (centres unmarked) [Compound 497]	A (percent of modification of PIK3CA protein ≥75%)	< 100	

Compound	% of modification [1]	IC50 (pAKT in BT474 cells) [nM]	IC50 (pAKT in BT474 cells; Homo sapiens, BT-474) [nM]
C=CC(=O)N1CCc2ccc(-c3nc(-c4cnc5c(c4)CN(C)CC5)c4ccsc4c3-c3c(F)cc(F)cc3OCCO)cc2C1 [Compound 498]	A (percent of modification of PIK3CA protein ≥75%)	< 100	
C=CC(=O)N1CCc2ccc(-c3nc(-c4cnc5c(c4)CNC(=O)C5)c4ccsc4c3-c3c(F)cc(F)cc3OC(C)C)cc2C1 [Compound 499]	A (percent of modification of PIK3CA protein ≥75%)	< 100	
C=CC(=O)N1CCn2nc(-c3nc(-c4ccc5c(c4)CCN(C)C5)c4ccsc4c3-c3c(F)cc(F)cc3OC(C)C)cc2[C@@H]1C [Compound 502]	A (percent of modification of PIK3CA protein ≥75%)	< 100	
C=CC(=O)N1Cc2cc(-c3nc(-c4ccc5c(c4)CCN(C)C5)c4ccsc4c3-c3c(F)cc(F)cc3OCC)nn2CC1C (centres unmarked) [Compound 503]	A (percent of modification of PIK3CA protein ≥75%)	< 100	
C=CC(=O)N1Cc2cc(-c3nc(-c4cnc5c(c4)CN(C)C5=O)c4ccsc4c3-c3c(F)cc(F)cc3OCCOC)nn2C[C@H]1C [Compound 504]	A (percent of modification of PIK3CA protein ≥75%)	< 100	
C=CC(=O)N1Cc2cc(-c3nc(-c4cnc5c(c4)CN(C)C5=O)c4ccsc4c3-c3c(F)cc(F)cc3OC(C)C)nn2[C@@H](C)C1 [Compound 505]	A (percent of modification of PIK3CA protein ≥75%)	< 100	
C=CC(=O)N1Cc2cc(-c3nc(-c4cnc5c(c4)CN(C)C5=O)c4ccsc4c3-c3c(F)cc(F)cc3OCCOC)nn2[C@@H](C)C1 [Compound 506]	A (percent of modification of PIK3CA protein ≥75%)	< 100	
C=CC(=O)N1CCn2nc(-c3nc(-c4ccc5c(c4)CCN(C)C5)c4ccsc4c3-c3c(F)cc(F)cc3OC(C)C)cc2[C@H]1C [Compound 507]	A (percent of modification of PIK3CA protein ≥75%)	< 100	
C=CC(=O)N1Cc2cc(-c3nc(-c4cn(C)cn4)c4ccsc4c3-c3c(F)cc(F)cc3OCCOC)nn2[C@@H](C)C1 [Compound 509]	A (percent of modification of PIK3CA protein ≥75%)	< 100	
C=CC(=O)N1CCn2nc(-c3nc(-c4ccc5c(c4)CCN(C)C5)c4ccsc4c3-c3c(F)cc(F)cc3OCCOC)cc2[C@H]1C [Compound 510]	A (percent of modification of PIK3CA protein ≥75%)	< 100	
C=CC(=O)N1Cc2cc(-c3nc(-c4ccc(C5(N)COC5)cc4)c4ccsc4c3-c3c(F)cc(F)cc3OC(C)C)nn2[C@@H](C)C1 [Compound 511]	A (percent of modification of PIK3CA protein ≥75%)	< 100	
C=CC(=O)N1Cc2cc(-c3nc(-c4ccc5c(c4)CCN(C)C5)c4ccsc4c3-c3c(F)cc(F)cc3OCCO)nn2C[C@H]1C [Compound 512]	A (percent of modification of PIK3CA protein ≥75%)	< 100	
C=CC(=O)N1Cc2cc(-c3nc(-c4cnc5c(c4)CN(C)C5=O)c4ccsc4c3-c3c(F)cc(F)cc3OC(C)C)nn2C[C@H]1C [Compound 513]	A (percent of modification of PIK3CA protein ≥75%)	< 100	
C=CC(=O)N1Cc2cc(-c3nc(-c4cnn(CC(C)(C)O)c4)c4ccsc4c3-c3c(F)cc(F)cc3OCCOC)nn2C[C@H]1C [Compound 514]	A (percent of modification of PIK3CA protein ≥75%)	< 100	
C=CC(=O)N1Cc2cc(-c3nc(-c4cnc5c(c4)CNC(=O)C5)c4ccsc4c3-c3c(F)cc(F)cc3OCCOC)nn2[C@@H](C)C1 [Compound 515]	A (percent of modification of PIK3CA protein ≥75%)	< 100	
C=CC(=O)N1Cc2cc(-c3nc(-c4ccc5c(c4)CCN(C)C5)c4ccsc4c3-c3c(F)cc(F)cc3OC3CC3)nn2C[C@H]1C [Compound 516]	A (percent of modification of PIK3CA protein ≥75%)	< 100	
C=C(F)C(=O)N1CCn2nc(-c3nc(-c4ccc5c(c4)CNC5=O)c4ccsc4c3-c3c(F)cc(F)cc3OC[C@@H](C)O)cc2C1 [Compound 517]	B (50%<percent of modification <75%)	100 to 1000	
